Bounds are passed on as bounds.

This note sets out measurements from patent US12377083B2 (WUHAN LL SCIENCE AND TECHNOLOGY DEVELOPMENT CO., LTD., priority 2019, dated 2025).

Data set [1] addresses hLPAR1 (human lysophosphatidic acid receptor 1) (Homo sapiens, UniProt Q92633). Briefly: FLIPR assay of intracellular calcium increase induced by activation of hLPAR1 expressed in CHO-K1 cells. The class given is cell-based. The settings on record: CHO-K1 cells expressing hLPAR1, agonist oleoyl-L-α-lysophosphatidic acid 1 μM; read-out: LPAR1 IC50. The method, boiled down: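 CHO-K1 cells expressing hLPAR1 were loaded with Fluo-4 AM for 1.0 h at 37° C, then preincubated 30 min at room temperature with compound. Oleoyl-LPA was added at 1 μM final, and calcium fluorescence was recorded by FLIPR for 2 min at 1-s intervals to assess antagonism.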

Data set [2] is described as follows: In vitro cytotoxicity assay in HepG2 cells, CCK-8 method. The class given is cell-based. The settings on record: human. In short, it runs like this: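 Cells plated at 50,000/well, grown overnight to 80-90% confluence, then given fresh medium with graded compound or DMSO for 48 h at 37°C, 5% CO2. After PBS washes, CCK-8 added for 1.5 h at 37°C in the dark; OD450 read and CC50 calculated.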
On the technique in general: Tetrazolium assays rely on reduction of a dye to a coloured formazan, in cell work by metabolically active cells.

The nature of data set [3]: In vitro metabolic stability, mouse liver microsomes. The data set is classed as in vitro ADME. The settings on record: 1 mg/mL liver microsome protein, 37° C., read-out: Metabolism in mouse liver microsome T½ min. The method, then:
(§1) The in vitro metabolic stability of the compounds disclosed herein was determined through incubation of liver microsomes of various species. A proper amount of test compound was added into a liver microsome reaction system (1 mg/mL liver microsome protein, 25 U/mL glucose-6 phosphate dehydrogenase, 1 mM NADP, 6 mM D-glucose 6-phosphate and 5 mM MgCl2), and then the mixture was incubated in a water bath kettle at 37° C. to start reaction. At each time point, 100 μL of the reaction system was added into a centrifuge tube containing 400 μL of internal standard working solution (containing a 200 ng/mL solution of dexamethasone, diclofenac, tolbutamide and labetalol in acetonitrile) precooled at 0° C. so as to stop the reaction, and the mixture was then centrifuged at 10,000 g for 10 min at 4° C. The supernatant was collected for LC-MS assay so as to obtain the values of in vitro metabolic half-life of the test compounds in liver microsomes of various species.
Background: Liver microsomes are vesicles of endoplasmic reticulum, rich in cytochrome P450 enzymes.

Data set [4] concerns A2058 (human melanoma cells). Briefly: A2058 cell scratch (migration) assay with LPA. The settings on record: 10 μM LPA, scratch area at 24 h. The class given is cell-based.
The nature of data set [5]: In vitro metabolic stability, rat liver microsomes. The class given is in vitro ADME. The settings on record: 1 mg/mL liver microsome protein, 37° C., read-out: Metabolism in rat liver microsome T½ min. On the procedure: as §1
The nature of data set [6]: In vitro metabolic stability, human liver microsomes. The settings on record: 1 mg/mL liver microsome protein, 37° C., read-out: Metabolism in human liver microsome T½ min. The data set is classed as in vitro ADME. The method, then: as §1

hLPAR1 (human lysophosphatidic acid receptor 1), sequence (Q92633 whole entry): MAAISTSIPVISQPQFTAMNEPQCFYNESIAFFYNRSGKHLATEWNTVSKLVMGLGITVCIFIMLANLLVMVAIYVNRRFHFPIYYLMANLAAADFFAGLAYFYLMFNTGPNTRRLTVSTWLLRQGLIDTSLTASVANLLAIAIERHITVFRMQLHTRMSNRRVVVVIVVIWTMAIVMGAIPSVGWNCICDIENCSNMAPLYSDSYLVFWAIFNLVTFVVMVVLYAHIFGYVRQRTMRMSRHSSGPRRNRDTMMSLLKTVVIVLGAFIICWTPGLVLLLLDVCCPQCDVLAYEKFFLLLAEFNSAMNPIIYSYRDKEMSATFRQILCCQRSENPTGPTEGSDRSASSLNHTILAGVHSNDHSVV

Regarding `Cc1onc(-c2ccc(O[C@H]3CCC[C@H](C(=O)O)C3)cc2)c1COC(=O)N(C)C1CCCC1` (racemic) [Compound 7, (+/−)-(1S,3S)-3-(4-(4-(((cyclopentyl(methyl)carbamoyl)oxy)methyl)-5-methylisoxazol-3-yl)phenoxy)cyclohexane-1-carboxylic Acid], the IC50 (usually the midpoint of a concentration-inhibition curve) in data set [1] is < 50 nM. Moreover, the CC50 (in general, the concentration at which the toxic effect on the cells reaches its halfway point) at 48 h in data set [2] was > 200 µM. For the same compound, the half-life came out at 149 min in data set [3], 2.81 min in data set [5] and 109 min in data set [6]. The “Cell migration inhibition rate (%)” value in data set [4] is on record as “A (A: 50-70%)”.
Take `CN(C(=O)OCc1c(-c2ccc(O[C@H]3CCC[C@H](C(=O)O)C3)c(F)c2)cnn1C)C1CCCC1` (racemic) [Compound 20, (+/−)-(1S,3S)-3-(4-(5-(((cyclopentyl(methyl)carbamoyl)oxy)methyl)-1-methyl-1H-pyrazol-4-yl)-2-fluorophenoxy)cyclohexane-1-carboxylic Acid]: the IC50 in data set [1] is < 50 nM. Besides, in data set [2], the CC50 at 48 h is > 200 µM. The half-life in data set [3], in data set [5] and in data set [6] was > 30 min in each case. Besides, the “Cell migration inhibition rate (%)” value in data set [4] is reported as “B (B: 30-50%)”.
For `Cc1noc(-c2ccc(O[C@H]3CCC[C@H](C(=O)O)C3)cc2)c1COC(=O)N(C)C1CCCC1` (racemic) [Compound 4, (+/−)-(1S,3S)-3-(4-(4-(((cyclopentyl(methyl)carbamoyl)oxy)methyl)-3-methylisoxazol-5-yl)phenoxy)cyclohexane-1-carboxylic Acid], the CC50 at 48 h in data set [2] was > 200 µM. The half-life amounted to 167 min in data set [3], 13.1 min in data set [5] and 131 min in data set [6].
As for `Cc1nc(-c2cnn(C)c2COC(=O)N(C)C2CCCC2)ccc1O[C@H]1CCC[C@H](C(=O)O)C1` (racemic) [Compound 16, (+/−)-(1S,3S)-3-((6-(5-(((cyclopentyl(methyl)carbamoyl)oxy)methyl)-1-methyl-1H-pyrazol-4-yl)-2-methylpyridin-3-yl)oxy)cyclohexane-1-carboxylic Acid], the IC50 in data set [1] is < 50 nM. The CC50 at 48 h in data set [2] is > 200 µM. Further, in data set [4], the “Cell migration inhibition rate (%)” value is on record as “A (A: 50-70%)”. For the same compound, the half-life in data set [5] came to 109 min; in data set [6], 619 min.
`Cc1nc(-c2cnn(C)c2COC(=O)N(C)C2CCCC2)cnc1O[C@H]1CCC[C@H](C(=O)O)C1` (racemic) [Compound 66]: in data set [1], the IC50 is < 50 nM. Besides, the half-life in data set [3] was 703 min; in data set [5] it was 93.4 min; in data set [6] it was 492 min. The “Cell migration inhibition rate (%)” value in data set [4] is “B (B: 30-50%)”.
As to `CN(C(=O)OCc1c(-c2ccc(O[C@H]3CCC[C@H](C(=O)O)C3)cc2)cnn1C)C1CCCC1` (racemic) [Compound 11, (+/−)-(1S,3S)-3-(4-(5-(((cyclopentyl(methyl)carbamoyl)oxy)methyl)-1-methyl-1H-pyrazol-4-yl)phenoxy)cyclohexane-1-carboxylate], in data set [2], the CC50 at 48 h was > 200 µM. The half-life in data set [3], in data set [5] and in data set [6] was > 30 min each time. The “Cell migration inhibition rate (%)” value in data set [4] is “A (A: 50-70%)”.
Consider `COc1nc(-c2cnn(C)c2COC(=O)N(C)C2CCCC2)ccc1O[C@H]1CCC[C@H](C(=O)O)C1` (racemic) [Compound 59, (+/−)-(1S,3S)-3-((6-(5-(((cyclopentyl(methyl)carbamoyl)oxy)methyl)-1-methyl-1H-pyrazol-4-yl)-2-methoxypyridin-3-yl)oxy)cyclohexane-1-carboxylic Acid], for which the 50% inhibitory concentration (IC50) in data set [1] is < 50 nM. Also, the CC50 at 48 h in data set [2] is > 200 µM. Besides, the “Cell migration inhibition rate (%)” value in data set [4] is reported as “B (B: 30-50%)”.
